Measurements from PubChem BioAssay (NCI).
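Protocol summary: plate cells (96-well), add compound at 5 concentrations, incubate 48 h, interpolate endpoints linearly. TGI marks complete inhibition of growth.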

Key:
Assay in all cases: NCI tumour cell line growth inhibition, 48 h
786-0 renal = test system: 786-0 renal
A498 renal = test system: A498 renal
ACHN renal = test system: ACHN renal
BT-549 breast = test system: BT-549 breast
CAKI-1 renal = test system: CAKI-1 renal
CCRF-CEM leukemia = test system: CCRF-CEM leukemia
COLO 205 colon = test system: COLO 205 colon
DU-145 prostate = test system: DU-145 prostate
HCC-2998 colon = test system: HCC-2998 colon
HCT-116 colon = test system: HCT-116 colon
HCT-15 colon = test system: HCT-15 colon
HL-60(TB) leukemia = test system: HL-60(TB) leukemia
HOP-62 NSCLC = test system: HOP-62 NSCLC
HOP-92 NSCLC = test system: HOP-92 NSCLC
HS 578T breast = test system: HS 578T breast
K-562 leukemia = test system: K-562 leukemia
KM12 colon = test system: KM12 colon
LOX IMVI melanoma = test system: LOX IMVI melanoma
M14 melanoma = test system: M14 melanoma
MCF7 breast = test system: MCF7 breast
MDA-MB-231 breast = test system: MDA-MB-231 breast
MDA-MB-435 = test system: MDA-MB-435
MDA-N = test system: MDA-N
MOLT-4 leukemia = test system: MOLT-4 leukemia
NCI-H23 lung = test system: NCI-H23 lung
NCI-H460 lung = test system: NCI-H460 lung
NCI-H522 lung = test system: NCI-H522 lung
NCI/ADR-RES ovarian = test system: NCI/ADR-RES ovarian
OVCAR-3 ovarian = test system: OVCAR-3 ovarian
OVCAR-4 ovarian = test system: OVCAR-4 ovarian
OVCAR-5 ovarian = test system: OVCAR-5 ovarian
OVCAR-8 ovarian = test system: OVCAR-8 ovarian
PC-3 prostate = test system: PC-3 prostate
RXF 393 renal = test system: RXF 393 renal
SF-268 CNS = test system: SF-268 CNS
SF-295 CNS = test system: SF-295 CNS
SF-539 CNS = test system: SF-539 CNS
SK-MEL-2 melanoma = test system: SK-MEL-2 melanoma
SK-MEL-5 melanoma = test system: SK-MEL-5 melanoma
SK-OV-3 ovarian = test system: SK-OV-3 ovarian
SN12C renal = test system: SN12C renal
SNB-19 CNS = test system: SNB-19 CNS
SNB-75 CNS = test system: SNB-75 CNS
SR leukemia = test system: SR leukemia
SW-620 colon = test system: SW-620 colon
T-47D breast = test system: T-47D breast
TK-10 renal = test system: TK-10 renal
U251 CNS = test system: U251 CNS
UACC-257 melanoma = test system: UACC-257 melanoma
UACC-62 melanoma = test system: UACC-62 melanoma
UO-31 renal = test system: UO-31 renal
A549 NSCLC = test system: A549 NSCLC
EKVX NSCLC = test system: EKVX NSCLC
HT29 colon = test system: HT29 colon
IGROV1 ovarian = test system: IGROV1 ovarian
NCI-H226 lung = test system: NCI-H226 lung
RPMI-8226 leukemia = test system: RPMI-8226 leukemia
SK-MEL-28 melanoma = test system: SK-MEL-28 melanoma
MALME-3M melanoma = test system: MALME-3M melanoma

Measured: TGI

CC1OC(O[C@H]2CC[C@]3(C)[C@H]4CC=C5[C@@H]6[C@@H](C)[C@H](C)CC[C@]6(C(=O)OC6OC(CO)C(O)C(O)C6O)CC[C@@]5(C(=O)O)[C@]4(C)CC[C@H]3C2(C)C)C(O)C(O)C1O (some centres undefined)
not listed: A549 NSCLC | EKVX NSCLC | HT29 colon | IGROV1 ovarian | NCI-H226 lung | RPMI-8226 leukemia | SK-MEL-28 melanoma | MALME-3M melanoma
> 100 µM: all other assays above

Cc1nc2c(=O)[nH]ncc2[nH]1
not listed: HCC-2998 colon | HOP-92 NSCLC | LOX IMVI melanoma | NCI-H522 lung | OVCAR-4 ovarian | SK-OV-3 ovarian | MALME-3M melanoma
> 100 µM: all other assays above

C=C(C)c1cc(C(C)(C)C)cc(C(=C)C)c1S(C)(=O)=O
not listed: HOP-92 NSCLC | RXF 393 renal | UACC-257 melanoma
> 100 µM: all other assays above
